The term EC50 denotes the concentration needed to bring the measured effect to its halfway point. A lower EC50 goes with higher potency in that assay.

Where only a bound is given, the exact number is not on record here.

Here are results for 20 compounds from patent US11884675B2, “Heterocyclic compounds as triggering receptor expressed on myeloid cells 2 agonists and methods of use” (AMGEN INC., priority 2020, dated 2024).

Sequence of hTREM2 (Q9NZC2 19-230): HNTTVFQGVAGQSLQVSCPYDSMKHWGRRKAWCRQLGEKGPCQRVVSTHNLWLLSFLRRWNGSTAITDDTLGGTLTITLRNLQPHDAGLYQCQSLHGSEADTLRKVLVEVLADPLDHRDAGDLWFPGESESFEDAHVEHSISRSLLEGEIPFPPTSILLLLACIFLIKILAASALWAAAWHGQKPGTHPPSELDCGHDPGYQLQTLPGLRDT
Sequence of hTREM2 (O43914 22-113 partner): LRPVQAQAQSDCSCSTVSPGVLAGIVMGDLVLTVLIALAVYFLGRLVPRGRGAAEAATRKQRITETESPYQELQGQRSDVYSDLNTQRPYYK

The test concerns the target hTREM2 (Homo sapiens, UniProt Q9NZC2). As to the kind of experiment: TREM2 agonist potency by Syk phosphorylation (AlphaLisa) in HEK293T-hTREM2 cells, used for Examples 306-429. The arrangement: expressed in transfected cells; host or cells: HEK293T (HEK293T-hTREM2 cells). The following applies: HEK293 Cells. Type of test: cell-based. The essentials: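 HEK293T cells expressing human TREM2 and DAP12, plated 20-24 h before, were exposed to compounds for 45 min at room temperature, then lysed. Phospho-Syk read by AlphaLisa; % activation from a standard curve and EC50 from a four-parameter log(agonist) fit.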
In general terms: In Alpha technology, singlet oxygen from a donor bead excites a nearby acceptor bead.
For the compound `Cc1nc2cc(N3CCO[C@@H](c4cnn(C5CC5)c4)C3)nc(-c3ccc(C(F)(F)F)nc3)c2nc1C` [Example 384, (2S)-2-(1-cyclopropylpyrazol-4-yl)-4-[2,3-dimethyl-5-[6-(trifluoromethyl)-3-pyridyl]pyrido[3,4-b]pyrazin-7-yl]morpholine], the EC50 is at most 50 nM. `Cc1nc2cc(N3CCO[C@H](c4cnn(C5CC5)c4)C3)nc(-c3ccc(C(F)(F)F)nc3)c2nc1C` [Example 385, (2R)-2-(1-cyclopropylpyrazol-4-yl)-4-[2,3-dimethyl-5-[6-(trifluoromethyl)-3-pyridyl]pyrido[3,4-b]pyrazin-7-yl]morpholine] registered a concentration giving a half-maximal response (EC50) of 50 to 500 nM. The compound `Cc1cc([C@H]2CN(c3nc(-c4cc(F)c(Cl)cc4F)c4nc(C)c(C)nc4n3)CCO2)ccn1` [Example 387, (2S)-4-[4-(4-chloro-2,5-difluoro-phenyl)-6,7-dimethyl-pteridin-2-yl]-2-(2-methyl-4-pyridyl)morpholine] yielded a 50% effective concentration (EC50) of at most 50 nM. To `Cc1cc([C@@H]2CN(c3nc(-c4cc(F)c(Cl)cc4F)c4nc(C)c(C)nc4n3)CCO2)ccn1` [Example 391, (2R)-4-[4-(4-chloro-2,5-difluoro-phenyl)-6,7-dimethyl-pteridin-2-yl]-2-(2-methyl-4-pyridyl)morpholine] belongs at most 50 nM; to `Cc1cc([C@@H]2C[C@H](c3nc(-c4ccc(Cl)c(F)c4F)c4nc(C)c(C)nc4n3)CCO2)ccn1` [Example 396, 4-(4-chloro-2,3-difluorophenyl)-6,7-dimethyl-2-((2S,4R)-2-(2-methylpyridin-4-yl)tetrahydro-2H-pyran-4-yl)pteridine], 50 to 500 nM. To `Cc1cc([C@H]2C[C@@H](c3nc(-c4ccc(Cl)c(F)c4F)c4nc(C)c(C)nc4n3)CCO2)ccn1` [Example 397, 4-(4-chloro-2,3-difluorophenyl)-6,7-dimethyl-2-((2R,4S)-2-(2-methylpyridin-4-yl)tetrahydro-2H-pyran-4-yl)pteridine] belongs at most 50 nM; to `Cc1nc2cc(N3C[C@@H](c4cnn(C5CC5)c4)O[C@@H](C)C3)nc(-c3ccc(F)cc3F)c2nc1C` [Example 398, (2R,6S)-2-(1-cyclopropyl-1H-pyrazol-4-yl)-4-(5-(2,4-difluorophenyl)-2,3-dimethylpyrido[3,4-b]pyrazin-7-yl)-6-methylmorpholine], at most 50 nM; to `Cc1nc2nc(C3CCOC(c4cnn(C5CC5)c4)C3)cc(-c3ccc(Cl)cc3F)c2nc1C` (centres unmarked) [Example 402, 8-(4-chloro-2-fluorophenyl)-6-(2-(1-cyclopropyl-1H-pyrazol-4-yl)tetrahydro-2H-pyran-4-yl)-2,3-dimethylpyrido[2,3-b]pyrazine], at most 50 nM. Next, `Cc1nc2cc(N3C[C@@H](C)O[C@@H](c4cnn(C5CC5)c4)C3)nc(-c3ccc(F)cc3F)c2nc1C` [Example 403, (2S,6R)-2-(1-cyclopropyl-1H-pyrazol-4-yl)-4-(5-(2,4-difluorophenyl)-2,3-dimethylpyrido[3,4-b]pyrazin-7-yl)-6-methylmorpholine]: 50 to 500 nM; `Cc1cnc2c(C34CC(C(F)(F)F)(C3)C4)nc(N3C[C@H](C)O[C@@H](c4cnn(C5CC5)c4)C3)nc2n1` [Example 404, (2S,6S)-2-(1-cyclopropyl-1H-pyrazol-4-yl)-6-methyl-4-(7-methyl-4-(3-(trifluoromethyl)bicyclo[1.1.1]pentan-1-yl)pteridin-2-yl)morpholine]: at most 50 nM; `Cc1cnc2c(C34CC(C(F)(F)F)(C3)C4)nc(N3C[C@@H](C)O[C@H](c4cnn(C5CC5)c4)C3)nc2n1` [Example 405, (2R,6R)-2-(1-cyclopropyl-1H-pyrazol-4-yl)-6-methyl-4-(7-methyl-4-(3-(trifluoromethyl)bicyclo[1.1.1]pentan-1-yl)pteridin-2-yl)morpholine]: 50 to 500 nM. `Cc1cnc2c(C34CC(C(F)(F)F)(C3)C4)nc([C@@H]3CCO[C@@H](c4cnn(C5CC5)c4)C3)nc2n1` [Example 406, 2-((2R,4R)-2-(1-cyclopropyl-1H-pyrazol-4-yl)tetrahydro-2H-pyran-4-yl)-7-methyl-4-(3-(trifluoromethyl)bicyclo[1.1.1]pentan-1-yl)pteridine]: the concentration for a half-maximal effect (EC50) was 500 to 3000 nM.

The compound `Cc1cnc2c(C34CC(C(F)(F)F)(C3)C4)nc([C@H]3CCO[C@@H](c4cnn(C5CC5)c4)C3)nc2n1` [Example 407, 2-((2R,4S)-2-(1-cyclopropyl-1H-pyrazol-4-yl)tetrahydro-2H-pyran-4-yl)-7-methyl-4-(3-(trifluoromethyl)bicyclo[1.1.1]pentan-1-yl)pteridine] registered a 50% effective concentration (EC50) of at most 50 nM. To `Cc1nc2nc(N3C[C@H](C)O[C@@H](c4cnn(C5CC5)c4)C3)nc(C34CC(C(F)(F)F)(C3)C4)c2nc1C` [Example 408, (2S,6S)-2-(1-cyclopropyl-1H-pyrazol-4-yl)-4-(6,7-dimethyl-4-(3-(trifluoromethyl)bicyclo[1.1.1]pentan-1-yl)pteridin-2-yl)-6-methylmorpholine] belongs at most 50 nM; to `Cc1nc2nc(N3C[C@@H](C)O[C@H](c4cnn(C5CC5)c4)C3)nc(C34CC(C(F)(F)F)(C3)C4)c2nc1C` [Example 409, (2R,6R)-2-(1-cyclopropyl-1H-pyrazol-4-yl)-4-(6,7-dimethyl-4-(3-(trifluoromethyl)bicyclo[1.1.1]pentan-1-yl)pteridin-2-yl)-6-methylmorpholine], 50 to 500 nM. Compound `Cc1nc2nc(N3C[C@@H](c4cnn(C5CC5)c4)O[C@@H](C)C3)nc(C34CC(C(F)(F)F)(C3)C4)c2nc1C` [Example 410, (2R,6S)-2-(1-cyclopropyl-1H-pyrazol-4-yl)-4-(6,7-dimethyl-4-(3-(trifluoromethyl)bicyclo[1.1.1]pentan-1-yl)pteridin-2-yl)-6-methylmorpholine] showed a half-maximal effective concentration (EC50) of at most 50 nM. Take `Cc1nc2nc(N3C[C@@H](C)O[C@@H](c4cnn(C5CC5)c4)C3)nc(C34CC(C(F)(F)F)(C3)C4)c2nc1C` [Example 411, (2S,6R)-2-(1-cyclopropyl-1H-pyrazol-4-yl)-4-(6,7-dimethyl-4-(3-(trifluoromethyl)bicyclo[1.1.1]pentan-1-yl)pteridin-2-yl)-6-methylmorpholine]: the half-maximal effective concentration (EC50) was at most 50 nM. To `Cc1nc2nc([C@@H]3CCO[C@@H](c4cnn(C5CC5)c4)C3)nc(-c3ccc(C(F)(F)F)cc3F)c2nc1C` [Example 412, 2-((2R,4R)-2-(1-cyclopropyl-1H-pyrazol-4-yl)tetrahydro-2H-pyran-4-yl)-4-(2-fluoro-4-(trifluoromethyl)phenyl)-6,7-dimethylpteridine] belongs 50 to 500 nM; to `Cc1nc2nc([C@H]3CCO[C@@H](c4cnn(C5CC5)c4)C3)nc(-c3ccc(C(F)(F)F)cc3F)c2nc1C` [Example 413, 2-((2R,4S)-2-(1-cyclopropyl-1H-pyrazol-4-yl)tetrahydro-2H-pyran-4-yl)-4-(2-fluoro-4-(trifluoromethyl)phenyl)-6,7-dimethylpteridine], at most 50 nM.

In turn, `Cc1ccc2c(-c3ccc(Cl)cc3F)nc([C@H]3C[C@@H](C)O[C@@H](c4cnn(C5CC5)c4)C3)nc2n1` [Example 414, 4-(4-chloro-2-fluorophenyl)-2-((2R,4S,6R)-2-(1-cyclopropyl-1H-pyrazol-4-yl)-6-methyltetrahydro-2H-pyran-4-yl)-7-methylpyrido[2,3-d]pyrimidine] came in with a concentration for a half-maximal effect (EC50) of at most 50 nM.
